The assay concerns the target T1, TXA2 synthetase (Homo sapiens, UniProt P24557).
T1 construct: human platelet microsomes (HPM); from tissue; host or cells: human platelet microsomes
T1 sequence (P24557 1-533): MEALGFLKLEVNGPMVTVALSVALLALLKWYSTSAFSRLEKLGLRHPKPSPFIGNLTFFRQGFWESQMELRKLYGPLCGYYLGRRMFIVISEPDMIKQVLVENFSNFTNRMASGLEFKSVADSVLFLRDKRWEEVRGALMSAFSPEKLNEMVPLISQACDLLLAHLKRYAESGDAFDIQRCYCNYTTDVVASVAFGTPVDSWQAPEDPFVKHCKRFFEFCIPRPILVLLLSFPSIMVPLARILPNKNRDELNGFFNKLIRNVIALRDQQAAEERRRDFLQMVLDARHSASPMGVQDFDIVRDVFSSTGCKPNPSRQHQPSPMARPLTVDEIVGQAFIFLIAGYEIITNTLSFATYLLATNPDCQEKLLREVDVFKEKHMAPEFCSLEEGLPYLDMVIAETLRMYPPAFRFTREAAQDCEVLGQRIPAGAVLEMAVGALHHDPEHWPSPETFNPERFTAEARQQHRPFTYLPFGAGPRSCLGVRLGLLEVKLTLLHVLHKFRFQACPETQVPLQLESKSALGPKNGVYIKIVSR
Briefly: TXA2 inhibition test: PGH2 mixed with human platelet microsomes (HPM), TXA2 measured by response of superfused rabbit aortic strips. Format: biochemical. Particulars: rabbit aorta response; for effectiveness in inhibiting TXA2 formation (in words): PGH2 + human platelet microsomes. As to the method:
The compounds of the present invention were tested for TXA2 inhibition as follows:
Rabbit aortic strips were superfused in series with Krebs solution. Thromboxane A2 (TXA2) was generated by mixing prostaglandin H2 (PGH2) with human platelet microsomes (HPM).
Potential inhibitors were tested by comparing the response of the rabbit aorta to the amount of TXA2 produced by mixing PGH2 and HPM without the test compound in the reaction medium and then the amount of TXA2 produced when the test compound was added to the HPM 5 minutes before the HPM was mixed with PGH2. […] For a discussion of TXA2 synthetase inhibition testing see, e.g., R. Gorman, supra.

“2,3-Dihydro-7-(and 6-)(3-pyridinylmethyl)-1,4-benzodioxin-2-carboxylic acid, sodium salt”: the “effectiveness in inhibiting TXA2 formation (in words)” value is reported as “most effective”.

For the molecule `COC(=O)C1Oc2ccc(Cc3cccnc3)cc2O1` (racemic) [Example 1, dl-4-(3-Pyridinylmethyl)-1,2-benzenediol, methyl glyoxylate acetal], the “effectiveness in inhibiting TXA2 formation (in words)” value is reported as “most effective”. Moreover, for the setting “test compound added to HPM 5 minutes before mixing with PGH2, read-out: approximate ED50 (inhibition of TXA2 formation) (converted)”, the IC50 was approximately 369 nM.

For the origin of these results see US4501892A, “Pyridyl benzenediols” (The Upjohn Company, priority 1982, dated 1985).
